Experiments:
[1] = system: db/db mice; assay: In vivo evaluation in db/db mice (type 2 diabetes model)
Source text: For in vivo evaluation of compound efficacy, male BKS.Cg-+Leprdb/Leprdb/OlaHsd mice (db/db mice—Harlan) were used. The db/db phenotype results from a mutation in the leptin receptor gene, leading to a splice variant (Chen, Charlat et al. 1996; Lee, Proenca et al. 1996). The development of type 2 diabetes in db/db mice is associated with reduced insulin levels due to progressive β-cell failure following an initial period of hypersecretion of insulin. Since these mice develop type 2 diabetes in a manner related to pathology development in humans, and the model is accepted as in vivo model for evaluation of novel anti-diabetic treatments by the Food and Drug Administration (FDA, US), it is a highly relevant model for testing candidate drugs for efficacy.
Compounds were administered intraperitoneal (IP) or oral (PO) at a dose of maximally 50 mg/kg. Mice were subjected to metabolic analysis weekly or bi-weekly. These tests included but were not limited to determination of fasting (5 hrs) and non-fasting blood glucose levels, plasma insulin levels, % glycated hemoglobin (HbA1c) levels, glucose tolerance test and insulin sensitivity test.
Treatment with Cmpd045 at 15 mg/kg PO decreased body weight (FIG. 1A).

[2] = system: INS-1E cells; assay: Cytokine-induced apoptosis (caspase-3/7 activation, Caspase-Glo 3/7) in INS-1E rat insulinoma cells; type: cell-based; settings: cytokine mix (IFN-γ, IL-1, TNF-α), 24 hours, caspase 3/7 activity, read-out: CYT EC50
Source text: The INS-1E cell line, a rat insulinoma cell line, has been characterized extensively. INS-1E cells respond to glucose by secreting insulin and, unlike most other immortalized n-cell lines, they do this in a consistent manner over time. The cells are sensitive to hyperglycemia-, free fatty acid (FFA)-, and cytokine-induced stress. Prolonged stress ultimately leads to induction of apoptotic pathways and, if stress is not counter-acted, to apoptosis. Caspase-3 and -7 play a central role downstream where various apoptotic pathways merge. As such, activation (i.e. cleavage) of these caspases forms a relevant primary read-out to evaluate protective activity of compounds against stress-induced apoptosis.
To evaluate the efficacy of different compounds to prevent induction of apoptosis, an in vitro screen was developed in which INS-1E cells were exposed to a cytokine mix (IFN-γ, 5 ng/ml; IL-1, 20 pg/ml; TNF-α, 0.25 ng/ml). The degree of induction of apoptosis was evaluated using a substrate for cleaved caspase-3 and -7, i.e. a proluminescent caspase-3/7 DEVD aminoluciferin substrate with a thermostable luciferase (Caspase-Glo® 3/7 assay; Promega, cat. G8092).
On day 0, INS-1E cells were plated in a white-walled 96-well microplate (Greiner, cat. 655098) at 20,000 cells per well in 100 μl complete medium (RPMI containing 11 mM glucose supplemented with 5% FCS, 100 IU/ml penicillin, 100 μg/ml streptomycin, 10 mM HEPES, 1 mM Sodium Pyruvate and 50 μM 2-Mercapto-ethanol). On day 2, 100 μl medium containing cytokines and compound dissolved in DMSO was added to the cells. Wells without cytokines containing DMSO and wells with cytokines and DMSO were included to evaluate the degree of caspase 3/7 activation by the cytokine mix. After 24 hours exposure to cytokines and/or compound, Caspase-Glo® 3/7 reagent was added to the cells and caspase activity was determined by measuring luminescence.
To evaluate compound efficacy, the “toxicity window” was calculated by subtracting caspase activity of wells without stressor from activity of wells with stressor but without compound. The amount of caspase activity in the latter wells was normalized to 1 and used as reference. Subsequently, caspase activity in the wells with stressor and varying concentrations of compound was calculated relative to the wells without compound. Plotting caspase activity vs the log 10 of the concentration of compound permitted calculation of the EC50 values for the compounds which typically lied between 0.0001 and 10 μM. Compounds with an EC50<10 μM were considered active.

[3] = system: M17_3SYN cells; assay: Paraquat-induced cytotoxicity (LDH) in α-synuclein over-expressing M17_3SYN neuroblastoma cells; type: cell-based; settings: Homo sapiens, Neuroblastoma cell, 48 h, 6 mM Paraquat, 2 days, LDH toxicity inhibition, read-out: SYN EC50
Method in brief: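 Human BE-M17 neuroblastoma cells stably overexpressing wild-type human α-synuclein were challenged with 6 mM paraquat (final) for 2 days at 37° C in the presence of graded compound concentrations. Cytotoxicity was measured as released LDH relative to total LDH, and EC50 was derived from dose-inhibition curves.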

COc1ccc(S(=O)(=O)N2CC3(CCN(S(=O)(=O)c4ccc(OC(F)F)cc4)CC3)C2)cc1 [Cmpd045, 7-((4-(Difluoromethoxy)phenyl)sulfonyl)-2-((4-methoxyphenyl)sulfonyl)-2,7-diazaspiro[3.5]nonane]
body weight ([1]; 15 mg/kg PO, non-fasted body weight, FIG. 1A): decreased
Fasted blood glucose levels ([1]; fasted, FIG. 1B): significantly lower
% HbA1c levels ([1]; treated for 4 weeks, FIG. 1C): reduced
EC50 [2]: 12 nM
EC50 [3]: 2 nM

— patent US9617264B2, “2,7-diazaspiro[3.5]nonane compounds” (REMYND NV, priority 2014, dated 2017)
